The results in this text go back to patent publication US5294724A, “4-hydroxytetrahydropyran-2-ones and the corresponding dihydroxycarboxylic acid derivatives, salts and esters and a process for their preparation” (priority 1989, dated 1994).

SMILES strings stand for the structures.

Assay [1] concerns LDL. Nature of the assay: Inhibition of Cu2+-catalyzed LDL oxidation in vitro. The assay is classed as biochemical, porcine. Particulars: 5 μM Cu2+, 2 hours at 37° C.; for IC50: fluorescence 430 nm, read-out: IC50 (50% inhibition of LDL oxidation). On the procedure:
6) Inhibition of Cu^2+ -catalyzed LDL oxidation in vitro LDL was isolated from porcine plasma which contained EDTA (1 mg/ml) by ultracentrifugation in salt solutions of NaCl/NaBr between the densities 1.019 and 1.063 g/ml (cf. R. J. Havel et al., J. Clin. Invest. 43, 1345 (1955)). LDL was then dialyzed against phosphate-buffered saline (160 mM NaCl, 10 mM NaH2 PO4), pH 7.4 and stored under nitrogen at 4° C. Before the oxidation process, the LDL fractions were diluted to a final protein concentration of 0.1 mg/ml using phosphate-buffered saline and 2.5 ml aliquot parts were pre-incubated under nitrogen with the test compounds (25 μl of ethanolic solution) for 1 hour at 37° C. (cf. McLean et al., Biochemistry 1989, 28, 321). For the Cu^2+ -catalyzed oxidation of LDL, 12.5 μl of a 1 mM CuSO4 solution were added to each sample, a 5 μM Cu^2+ concentration resulting. The incubation was carried out for 2 hours at 37° C. and in an air atmosphere. The fluorescence intensity was measured at 430 nm (excitation wavelength 365 nm) (cf. Steinbrecher, U. P., J. Biol. Chem. 1987, 262, 3603). […] In addition, the inhibition using a 10^-5 N concentration of the test compound is indicated in %.

Assay [2] concerns HEP G2 cells. Nature of the assay: Inhibition of cholesterol biosynthesis in cell cultures (HEP G2 cells), incorporation of 14C-sodium acetate in cholesterol. The format is cell-based. Particulars: for IC50 / IC70: Homo sapiens, HepG2, sodium salts, test compounds corrected by deviation of mevinolin sodium from its mean value; for IC50: read-out: IC50 (concentration necessary for a 50% inhibition); for IC70: read-out: IC70 (concentration necessary for a 70% inhibition); for Relative potency in % / Relative potency in % (value in parentheses): mevinolin sodium = 100; for Relative potency in %: from IC50; for Relative potency in % (value in parentheses): corresponds to IC70. On the procedure: 2) Inhibition of cholesterol biosynthesis in cell cultures (EEP G2 cells)
Determination of the inhibition of the incorporation of ^14 C-sodium acetate in cholesterol
Monolayers of HEP G2 cells in lipoprotein-free medium were preincubated with various concentrations of the sodium salts of the dihydroxycarboxylic acids of the formula II for 1 hour. After adding ^14 C-labeled sodium acetate, the incubation was continued for 3 hours. Tritium-labeled cholesterol was added as an internal standard and an aliquot of the cells was subjected to alkaline hydrolysis. The lipids were extracted using chloroform/methanol 2: 1. After adding carrier cholesterol, the lipid mixture was preparatively separated on TLC plates using chloroform/acetone 9: 1. The cholesterol zone was made visible by staining with iodine vapor, additionally detected using a TLC radio scanner and then scraped off. The amount of ^14 C-cholesterol formed was determined scintigraphically and related to mg of cell protein. The same procedure was carried out with cells from the Bame culture without preincubation with a test compound (so-called "solvent control"). The potency of the test compounds was determined by comparison of the biosynthesized ^14 C-cholesterol in test runs and in "solvent control".

Assay [3] deals with serum total cholesterol. The assay is described as follows: Hypocholesterolemic activity in rabbits after p.o. administration. The format is in vivo, male white New Zealand rabbits. The note with it: for Serum total cholesterol, % change compared to control group: rabbit p.o., 5 mg/kg per day (constant). On the procedure: 4) Hypocholesterolemic activity in rabbits after p.o. administration
Normolipemic male white New Zealand rabbits, body weight 3-3.5 kg, were divided into groups of 5 animals. The groups in each case received one of the test compounds (sodium salts of the compounds of the formula II), suspended in 1% aqueous methylcellulose (®Tylose MH 300), 5.10 or 20 mg/kg/day daily in the morning by stomach tube. The animals of the control groups received only Tylose MH 300. Every 3-4 days samples of venous blood were taken from all animals 20 hours after the oral administration. The serum total cholesterol was determined enzymatically in these samples using the test combination of Boehringer Mannheim (CHOD-PAP high performance method). The serum cholesterol level of the treated animals was compared with that of the control groups. A "discharge phase" followed the 20-day "treatment phase", in which the change in the serum cholesterol level was further monitored.

In assay [4] the target is T1, HMG-CoA reductase (Rattus norvegicus, UniProt P51639).
T1 construct: solubilized enzyme preparations from liver microsomes of rats; from tissue; host or cells: rat liver microsomes (cholestyramine-induced rats), solubilized
T1 sequence (P51639 1-887): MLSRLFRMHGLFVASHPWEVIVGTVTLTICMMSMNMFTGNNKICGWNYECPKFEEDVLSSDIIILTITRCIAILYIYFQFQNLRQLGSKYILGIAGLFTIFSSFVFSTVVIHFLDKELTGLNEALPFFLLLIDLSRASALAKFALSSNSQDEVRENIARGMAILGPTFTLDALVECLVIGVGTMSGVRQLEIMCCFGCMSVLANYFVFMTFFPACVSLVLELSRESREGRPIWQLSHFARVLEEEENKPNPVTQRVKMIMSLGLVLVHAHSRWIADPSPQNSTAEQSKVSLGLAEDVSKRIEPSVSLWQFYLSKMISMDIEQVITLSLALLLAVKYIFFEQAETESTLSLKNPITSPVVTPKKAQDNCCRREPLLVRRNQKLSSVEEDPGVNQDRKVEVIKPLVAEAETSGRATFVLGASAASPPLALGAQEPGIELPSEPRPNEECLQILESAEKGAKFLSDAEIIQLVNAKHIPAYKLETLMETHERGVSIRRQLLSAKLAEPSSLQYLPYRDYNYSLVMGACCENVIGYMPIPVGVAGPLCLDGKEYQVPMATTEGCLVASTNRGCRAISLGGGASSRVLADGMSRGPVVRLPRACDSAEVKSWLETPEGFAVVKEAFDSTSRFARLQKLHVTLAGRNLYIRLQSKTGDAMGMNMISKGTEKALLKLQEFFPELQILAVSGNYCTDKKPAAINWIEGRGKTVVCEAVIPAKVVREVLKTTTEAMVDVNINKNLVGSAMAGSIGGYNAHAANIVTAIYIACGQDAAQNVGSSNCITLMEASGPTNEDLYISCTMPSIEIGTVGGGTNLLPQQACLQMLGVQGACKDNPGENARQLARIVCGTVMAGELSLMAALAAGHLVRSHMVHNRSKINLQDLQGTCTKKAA
The assay is described as follows: Inhibition of HMG-CoA reductase activity in solubilized enzyme preparations from rat liver microsomes. The assay is classed as biochemical. The note with it: sodium salts of the dihydroxycarboxylic acids; mean of 3 parallel samples; read-out: IC50 (molar concentration necessary for a 50% inhibition). On the procedure: 1) Inhibition of HKG-CoA reductase activity in solubilized enzyme preparations from rat liver microsomes
HMG-CoA reductase activity was measured on solubilized enzyme preparations from liver microsomes of rats which had been induced by conversion into the day/night rhythm using cholestyramine (®Cuemid). (S,R)^14 C-HMG-CoA was used as a substrate, and the concentration of NADPH was maintained during the incubation by a regenerating system. The separation of ^14 C-mevalonate from substrate and other products (for example ^14 C-HMG) was carried out by column elution, the elution profile of each individual sample being determined. The regular addition of ^3 H-mevalonate was avoided as the determination gives the data relative to the inhibitory action. The enzyme-free control, the enzyme-containing normal mixture (=100%) and those containing preparation additives were in each case treated together in one series of experiments. The sodium salts of the dihydroxycarboxylic acids of the formula II were always employed as the preparation in this test. Each individual value was formed as the mean value of 3 parallel samples. The significance of the mean value differences between preparation-free and preparation-containing samples was evaluated by the t-test.
A general note: Liver microsomes are a subcellular fraction often used to study metabolism.

The test system of assay [5] is microsomal lipid peroxidation. The assay is described as follows: Inhibition of microsomal lipid peroxidation (in vitro). The assay is classed as biochemical. Particulars: for IC50: microsomes, read-out: IC50 (50% inhibition of lipid peroxidation). On the procedure:
5) Inhibition of microsomal lipid peroxidation (in vitro)
The inhibition of lipid peroxidation was measured under the experimental conditions described by H. Wafers and H. Sies, Eur. J. Biochem. 174, 353-357 (1988). The microsomes were obtained according to the literature cited therein. IC50 denotes the concentration of the test compound in moles per liter which causes a 50% inhibition of lipid peroxidation.

`CC(C)c1cc(Sc2ccc(F)cc2)cc(-c2ccc(F)cc2)c1OC[C@@H](O)C[C@@H](O)CC(=O)O` [Example 1]: the IC50 in assay [1] is above 10000 nM; in assay [2], 4.3 nM; in assay [4], 6 nM. In addition, the “Inhibition at 10^-5 M” value in assay [1] is 41%. Also, the IC70 in assay [2] is around 0.8 nM. Moreover, the “Relative potency in %” value in assay [2] was determined as 1163%. Also, in assay [2], the “Relative potency in % (value in parentheses)” value was found to be 18750%. The “onset of action / maximum action” value in assay [3] (Table 4) is reported as “commences very early on. The maximum action was virtually achieved even in the first measurement after 3 days of treatment”. Moreover, the “plasma cholesterol decrease compared with mevinolin and compound C” value in assay [3] (Table 4, lower dosage) is “substantially greater plasma cholesterol decrease than mevinolin or the compound C in spite of lower dosage”. The “Serum total cholesterol, % change compared to control group” value (from here on “Serum total cholesterol, % change”) was -44% in assay [3] (administration 3); -46% in assay [3] (administration 10); -43% in assay [3] (administration 14); -42% in assay [3] (administration 17); -48% in assay [3] (administration 20); -22% in assay [3] (discharge phase 3). Besides, the “Serum total cholesterol, % change” value was -17% in assay [3] (discharge phase 6) and -6% in assay [3] (discharge phase 11). The “Inhibition at 10^-5 mol/l” value in assay [5] is below 10%.

Take `CC(C)c1c(O)c(C(C)C)c(C(C)C)c(OC[C@@H](O)C[C@@H](O)CC(=O)O)c1-c1ccc(F)cc1` [Example 8]: the results for the IC50 in assay [1], in assay [2] and in assay [4] were 1100 nM, 4 nM and 2 nM, respectively. For the same compound, in assay [2], the “Relative potency in %” value was 1250%. Besides, the “Inhibition at 10^-5 mol/l” value in assay [5] was 27%.

Consider `CC(C)c1c(OC[C@@H](O)C[C@@H](O)CC(=O)O)c(C(C)C)c(C(C)C)c(O)c1-c1ccc(F)cc1` [Example 9], for which the IC50 in assay [1] is 6000 nM; in assay [2], 7.5 nM; in assay [4] it was 4 nM. Also, in assay [2], the IC70 worked out at 12 nM. Further, the “Relative potency in %” value in assay [2] turned out to be 667%. Besides, in assay [2], the “Relative potency in % (value in parentheses)” value was 1250%. Moreover, the “Serum total cholesterol, % change” value in assay [3] (administration 3) is reported as -8%; in assay [3] (administration 10), -12%; in assay [3] (administration 14) it was -15%; in assay [3] (discharge phase 3), -4%; in assay [3] (discharge phase 6) it was -4%; in assay [3] (discharge phase 11), “+6%”. In addition, in assay [5], the “Inhibition at 10^-5 mol/l” value is below 10%.

For the compound `CC(C)c1cc(Sc2ccc(F)cc2)cc(-c2ccc(F)cc2)c1OC[C@@H]1C[C@@H](O)CC(=O)O1` [Example 10, 4(R)-Hydroxy-6(S)-[(2-p-fluorophenyl-4-p-fluorophenylthio-6-isopropyl)phenoxymethyl]-3,4,5,6-tetrahydro-2H-pyran-2-one], in assay [1], the IC50 is above 10000 nM and the “Inhibition at 10^-5 M” value stood at 23%.

Regarding `CC(C)c1cc(Sc2ccc(F)cc2)cc(-c2ccc(F)cc2)c1O` [Process Example 6, 2-(p-Fluorophenyl)-4-(p-fluorophenylthio)-6-isopropylphenol], in assay [1], the IC50 was determined as 1000 nM. Further, in assay [5], the “Inhibition at 10^-5 mol/l” value is on record as 95% and the IC50 amounted to 3000 nM.

As to `CC(=O)Oc1c(C(C)C)c(-c2ccc(F)cc2)c(O)c(C(C)C)c1C(C)C` [Process Example 25, 2,3,5-Triisopropyl-4-acetoxy-6-(p-fluorophenyl)phenol], the IC50 in assay [1] was 150 nM. Moreover, in assay [5], the “Inhibition at 10^-5 mol/l” value came to 83% and the IC50 came to 4800 nM.

A word on the Inhibition: it is the drop in the measured response relative to a control, in per cent. A low value points to little suppression.
